From paper PMC3857224, “Inhibition of DNA Glycosylases via Small Molecule Purine Analogs” (PLoS ONE, 2013)

Columns and labels:
[1] = test system: NEIL1-depleted cells; design: method as in PMID 21131780; conditions: minimally toxic doses, siRNA NEIL1 depletion; cited from earlier work
[2] = target: T1, NEIL1 (Homo sapiens, UniProt Q96FI4); test: qHTS fluorogenic glycosylase/AP lyase assay, 1536-well, Sp/Gh substrate; type: biochemical; conditions: 5 concentrations
T1 construct: made in house
Experimental: The fluorogenic assay was miniaturized to 4 µL in 1536-well black solid plates by optimization of the enzyme and Sp/Gh substrate concentrations. Briefly, 3 µL of 25 nM NEIL1 were dispensed into each well of a 1536-well plate (except buffer in columns 3 and 4 as a negative control). Compounds (DMSO solutions) and control (DMSO only) (23 nL) were transferred to the plate via Kalypsys pintool. The plate was incubated for 15 min at room temperature, and then 1 µL of the Sp/Gh-containing DNA substrate (75 nM final concentration) was added to start the reaction. The plate was immediately transferred into the ViewLux reader for the kinetic fluorescence read. Initial rate data were normalized against uninhibited and no-enzyme controls and the resulting percent activities as a function of compound concentration were fitted using the Hill equation.
Having established the general principle for a glycosylase screening assay, further assay development was undertaken to enable HTS in which the reaction volumes were reduced by 5-fold to a total of 4 µL. Initially, the library of pharmacologically active compounds (LOPAC^1280) was screened for inhibitors of NEIL1 as a determination of the feasibility of this high-throughput method. […] All compounds were screened at 5 different concentrations that allowed for the initial estimation of inhibitory potency (IC50) values, as well as an evaluation of the shape of the response curves. In addition to the anticipated inhibitors (known DNA intercalators, such as ellipticine (IC50 = 2 µM)) and other small molecules that have been previously established to be promiscuous inhibitors (such as aurintricarboxylic acid (IC50<1 µM)), one interesting hit from this screen was CGP-74514A (NCGC ID is NCGC00015229) (Figure 5A). CGP-74514A is a known small molecule inhibitor of Cdk1 in which the structure of this molecule is based on a purine ring backbone.

[3] = target: T1, NEIL1; test: gel-based incision assay of oligodeoxynucleotides containing site-specific base lesions; type: biochemical; conditions: polyacrylamide gel, reaction quenched at 20 min
Experimental: The 384-well fluorogenic assay was carried out in a 20 µL reaction mixture in 20 mM Tris-HCl pH 8.0, 100 mM KCl, and 0.1% BSA, with 5 nM active enzyme and 50 nM substrate. Possible inhibitors were incubated with the enzyme for at least 5 min at room temperature in a black, low-volume 384-well plate before addition of an equal volume of substrate to start the reaction. The plates were spun for 30 s at 1000 rcf to remove bubbles. The reactions were incubated at 37°C and fluorescence data collected on an Infinite M200 (Tecan, Mannedorf, Switzerland) equipped with standard optics (excitation filter 525 nm, and emission filter 598 nm). For the gel-based assay, reactions were initiated as described for the fluorogenic assay, but quenched with 20 µL 95% formamide at 20 min. The products were separated by electrophoresis through a 15% polyacrylamide gel containing 8 M urea and visualized by a Typhoon scanner (GE Life Sciences, Piscataway, NJ). The fraction of cleaved product was measured using ImageQuant software and analyzed using GraphPad Prism 6. […]

[4] = target: T1, NEIL1; test: NEIL1 excision of FapyAde and FapyGua from γ-irradiated calf thymus DNA by GC-MS/MS; type: biochemical; conditions: 10 µL of 2 mM inhibitor in DMSO, 1 h 37°C
Experimental: The enzymatic activity of NEIL1 was measured using gas chromatography/isotope-dilution tandem mass spectrometry (GC-MS/MS) and calf thymus DNA samples γ-irradiated at 20 Gy as described, [30]. Aliquots of FapyAde-^13C,^15N2 and FapyGua-^13C,^15N2 were added as internal standards to 50 µg of DNA samples. After drying in a SpeedVac, DNA samples were dissolved in 50 µL of an incubation buffer consisting of 50 mM phosphate buffer (pH 7.4), 100 mM KCl, 1 mM EDTA, and 0.1 mM dithiothreitol, and then incubated with 2 µg NEIL1 for 1 h at 37°C without any inhibitor, DMSO alone, or with 10 µL of an inhibitor solution in DMSO (2 mM). After incubation, 150 µL of cold ethanol was added. The samples were kept at −20°C for 1 h and then centrifuged with 14,000 g for 30 min at 4°C. The supernatant fractions were separated and ethanol removed in a SpeedVac under vacuum. The samples were then frozen in liquid nitrogen and lyophilized overnight. To fully remove DMSO that would interfere with GC-MS/MS analysis, 500 µL water were added to the samples followed by lyophilization overnight. This procedure was repeated twice. Dried samples were derivatized and analyzed by GC-MS/MS as described, [30]. For each data point, three independently prepared samples were used.
Although Gh and Sp are excellent substrates for NEIL1, these are likely not to be the biologically relevant substrates. Thus, to determine if the compounds that were identified above were effective in the inhibition of NEIL1 against its biologically relevant substrates FapyAde and FapyGua, [6], γ-irradiated calf thymus DNA was used as a substrate. The excision by NEIL1 of these substrates from DNA was measured by GC-MS/MS with isotope-dilution. Figure 8 illustrates the excision of FapyAde and FapyGua by NEIL1 from γ-irradiated calf thymus DNA in the absence or presence of inhibitors. […] Some inhibition by DMSO alone was also observed when compared with excision by NEIL1 alone (p = 0.01). However, when compared to DMSO, the inhibitions by P2, P6, P7 and P8 were highly significant (p<0.005). […] A p-value<0.05 was assumed to correspond to statistical significance.

T1 sequence (Q96FI4 whole entry): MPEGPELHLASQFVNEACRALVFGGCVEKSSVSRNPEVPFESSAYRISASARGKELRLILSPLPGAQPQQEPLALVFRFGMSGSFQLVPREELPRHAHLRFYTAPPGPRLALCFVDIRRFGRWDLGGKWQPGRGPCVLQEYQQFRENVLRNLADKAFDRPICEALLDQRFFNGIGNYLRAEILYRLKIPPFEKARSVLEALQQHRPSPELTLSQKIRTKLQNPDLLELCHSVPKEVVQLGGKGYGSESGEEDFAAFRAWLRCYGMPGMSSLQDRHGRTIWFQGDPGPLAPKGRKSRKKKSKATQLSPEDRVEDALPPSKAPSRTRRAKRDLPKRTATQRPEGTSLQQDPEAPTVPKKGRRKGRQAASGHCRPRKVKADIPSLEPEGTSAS

IC50 [2] [µM] | IC50 [3] [µM] | inhibition of NEIL1 excision of FapyAde and FapyGua [4] | SMILES | increased cytotoxicity in NEIL1-depleted cells [1] [fold]
25.1 | > 50 | – | Cc1ccc(NC(=O)C2CCCN(c3ncnc4c3nc3n4CCCCC3)C2)cc1Cl (stereo not shown) [Purine P22] | –
31.6 | > 20 | – | Cc1cc(C)c(CN2CCN(C(=O)Cn3cnc4c(NCc5ccccc5)ncnc43)CC2)c(C)c1 [Purine P25] | –
31.6 | > 20 | – | c1ccc(COc2ccc(Nc3ncnc4nc[nH]c34)cc2)cc1 [Purine P26] | –
0.6 | > 50 | – | CC(=O)c1ccc(N2CCN(C(=O)C3CCCN(c4ncnc5c4nc4n5CCCCC4)C3)CC2)cc1 (stereo not shown) [Purine P27] | –
0.7 | > 20 | – | CCc1cccc(NC(=O)C2CCCN(c3ncnc4c3nc3n4CCCCC3)C2)c1 (stereo not shown) [Purine P28] | –
0.9 | > 50 | – | CC(=O)OC[C@@H]1CN(Cc2ccccc2)C[C@H](n2cnc3c(NCc4ccc(F)cc4)ncnc32)O1 [Purine P29] | –
1.8 | > 50 | – | CNC(=O)[C@H]1O[C@H](n2cnc3c(NCc4cccc(I)c4)ncnc32)[C@@H](O)[C@@H]1O [Purine P30] | –
7.1 | > 50 | – | Cc1ccccc1CN1CCC(CNC(=O)C2CCCN(c3ncnc4c3nc3n4CCCCC3)C2)CC1 (stereo not shown) [Purine P31] | –
7.1 | 19.3 | – | CC(C)[C@H](CO)N(Cc1cccc(F)c1)c1nc(Nc2cccc(Cl)c2)c2ncn(C(C)C)c2n1 [Purine P32] | –
7.9 | > 50 | – | CC(C)n1cnc2c(NCc3ccccc3)nc(NCc3ccccc3)nc21 [Purine P33] | –
10 | > 50 | – | COc1cccc(-c2cc(CNC(=O)[C@H]3O[C@@H](n4cnc5c(N)ncnc54)[C@H](O)[C@@H]3O)no2)c1 [Purine P34] | –
11.2 | > 50 | – | COc1ccc2[nH]cc(CCNC(=O)/C=C/[C@H]3O[C@@H](n4cnc5c(NC(=O)c6ccccc6)ncnc54)[C@H](O)[C@@H]3O)c2c1 [Purine P35] | –
15.5 | > 50 | – | Nc1nc(N)c2[nH]c(-c3ccccc3)nc2n1 [Purine P36] | –
10 | > 50 | – | COc1ccccc1CNC(=O)C1CCN(c2ncnc3c2nc2n3CCCCC2)CC1 [Purine P37] | –
0.3 | > 50 | – | OC[C@@H]1CN(Cc2ccccc2)C[C@H](n2cnc3c(N4CCN(c5ccccc5)CC4)ncnc32)O1 [Purine P38] | –
0.6 | > 50 | – | Cc1cccc(OCCSc2nc3c([nH]2)c(=N)ncn3Cc2ccccc2)c1 [Purine P39] | –
0.6 | > 50 | – | COc1ccc(CNc2nc(NCc3ccc(OC)cc3)c3[nH]cnc3n2)cc1 [Purine P40] | –
0.8 | > 50 | – | O=C(C1CCCN(c2ncnc3c2nc2n3CCCCC2)C1)N1CCN(c2ccc(F)cc2)CC1 (stereo not shown) [Purine P41] | –
0.8 | > 50 | – | CCOCCCNc1ncnc2c1nc1n2CCCC1 [Purine P42] | –
< 1 | – | – | O=C(O)C1=CC(=C(c2ccc(O)c(C(=O)O)c2)c2ccc(O)c(C(=O)O)c2)C=CC1=O [aurintricarboxylic acid, reference compound] | –

The remaining lines, values behind:

SMILES | IC50 [2] [µM] | IC50 [3] [µM] | inhibition of NEIL1 excision of FapyAde and FapyGua [4] | increased cytotoxicity in NEIL1-depleted cells [1] [fold]
Nc1nc(N)c2nc(CNc3ccc(C(=O)N[C@@H](CCC(=O)O)C(=O)O)cc3)cnc2n1 [AMT, aminopterin] | – | – | – | 7
CN(Cc1cnc2nc(N)nc(N)c2n1)c1ccc(C(=O)N[C@@H](CCC(=O)O)C(=O)O)cc1 [MTX, methotrexate] | – | – | – | 10
Cc1ccc2nc(N)[nH]c(=O)c2c1Sc1ccncc1 [NOL, nolatrexed] | – | – | – | 5
N#Cc1nc(Nc2cc(F)cc(F)c2)c2ncn(CCN3CCCC3)c2n1 [Purine P1] | 3.6 | > 50 | – | –
O=C(OCC1OC(n2cnc3c(N(C(=O)c4ccccc4)C(=O)c4ccccc4)ncnc32)C(O)C1F)c1ccccc1 (stereo not shown) [Purine P3] | 3.2 | > 50 | – | –
N#Cc1nc(Nc2cc(F)cc(F)c2)c2ncn(CCCN3CCCC3)c2n1 [Purine P5] | 7.9 | > 50 | – | –
CCNc1nc(C#N)nc2c1ncn2-c1cccc(Cl)c1 [Purine P10] | 10 | > 50 | – | –
C=CC(=O)N1CCCC(Nc2nc(Nc3ccc(N(C)C(=O)CC)cc3C)nc3nc[nH]c23)C1 (stereo not shown) [Purine P12] | 11.2 | > 20 | – | –
CC(C)n1cnc2c(N(C)c3ccccc3)nc(N(CCN(C)C)Cc3ccccc3)nc21 [Purine P13] | 12.6 | > 50 | – | –
Nc1ncnc2c1ncn2[C@@H]1O[C@H](CNCc2cccc(C#Cc3ccccc3)c2)[C@@H](O)[C@H]1O [Purine P14] | 12.6 | > 50 | – | –
CC(C)CNc1ncnc2c1ncn2[C@H]1CN(Cc2ccc(-c3ccccc3)cc2)C[C@@H](CO)O1 [Purine P15] | 14.1 | > 50 | – | –
CN(C)CCNc1ncnc2c1ncn2[C@H]1CN(Cc2ccc(-c3ccccc3)cc2)C[C@@H](CO)O1 [Purine P16] | 15.8 | > 50 | – | –
O=C(C1CCCN(c2ncnc3c2nc2n3CCCCC2)C1)N1CCN(c2cccc(Cl)c2)CC1 (stereo not shown) [Purine P17] | 15.8 | > 50 | – | –
Cc1cc(/C=C/C#N)cc(C)c1Nc1nc(Nc2ccc3n[nH]nc3c2)c2[nH]cnc2n1 [Purine P18] | 17.8 | > 50 | – | –
O=C(C1CCN(c2ncnc3c2nc2n3CCCCC2)CC1)N1CCN(c2cccc(Cl)c2)CC1 [Purine P19] | 20 | > 20 | no inhibition | –
Cc1ccc(C(=O)Nc2cccc(C(F)(F)F)c2)cc1Nc1ncnc2nc[nH]c12 [Purine P20] | 22.4 | > 50 | – | –
Cc1nc2ccc(CN(C)c3ccc(C(=O)N[C@@H](CCC(=O)O)C(=O)O)s3)cc2c(=O)[nH]1 [RTX, raltitrexed] | – | – | – | 9
